Patent publication US12258370B2, “Betulastatin compounds” (Arizona Board of Regents on behalf of Arizona State …, priority 2017, dated 2025)
In brackets after ≈: the same amount, converted by molar mass.

Columns and labels:
Format in all cases: cell-based
[1] = system: BXPC-3 (pancreas); assay: Sulforhodamine B human cancer cell growth inhibition, BXPC-3; conditions: BXPC-3 pancreas cell line, compounds in DMSO, 48 h; for IC50: Homo sapiens, read-out: Gl50 Growth Inhibition, XPC-3
Protocol: (§1) Cancer Cell Line Procedures. Inhibition of human cancer cell growth was assessed using the standard sulforhodamine B assay of the U.S. National Cancer Institute, as previously described.^15 To begin, cells in a 5% fetal bovine serum/RPMI1640 medium were inoculated in 96-well plates and incubated for 24 h. Next, serial dilutions of the compounds were added. After 48 h, the plates were fixed with trichloroacetic acid, stained with sulforhodamine B, and read with an automated microplate reader.

[2] = system: KM20L2 (colon); assay: Sulforhodamine B human cancer cell growth inhibition, KM20L2; conditions: compounds in DMSO, 48 h; for Gl50 Growth Inhibition, KM20L2: KM20L2 colon cell line; for IC50: Homo sapiens, KM-20L2, KM20L2 colon cell line, read-out: Gl50 Growth Inhibition, KM20L2
Protocol: as §1

[3] = system: SF-268 (CNS); assay: Sulforhodamine B human cancer cell growth inhibition, SF-268; conditions: SF-268 CNS cell line, compounds in DMSO, 48 h; for IC50: Homo sapiens, read-out: Gl50 Growth Inhibition, SF-268
Protocol: as §1

[4] = system: NCI-H460 (lung); assay: Sulforhodamine B human cancer cell growth inhibition, NCI-H460; conditions: NCI-H460 lung cell line, compounds in DMSO, 48 h; for IC50: Homo sapiens, read-out: Gl50 Growth Inhibition, NCI-H460
Protocol: as §1

[5] = system: DU-145 (prostate); assay: Sulforhodamine B human cancer cell growth inhibition, DU-145; conditions: DU-145 prostate cell line, compounds in DMSO, 48 h; for IC50: Homo sapiens, read-out: Gl50 Growth Inhibition, DU-145
Protocol: as §1

[6] = system: MCF-7 (breast); assay: Sulforhodamine B human cancer cell growth inhibition, MCF-7; conditions: compounds in DMSO, 48 h; for Gl50 Growth Inhibition, MCF-7: MCF-7 breast cell line; for IC50: Homo sapiens, MCF7, MCF-7 breast cell line, read-out: Gl50 Growth Inhibition, MCF-7
Protocol: as §1

Compound | Gl50 Growth Inhibition, XPC-3 [1] [µg/mL] | Gl50 Growth Inhibition, KM20L2 [2] [µg/mL] | Gl50 Growth Inhibition, SF-268 [3] [µg/mL] | Gl50 Growth Inhibition, NCI-H460 [4] [µg/mL] | Gl50 Growth Inhibition, DU-145 [5] [µg/mL] | Gl50 Growth Inhibition, MCF-7 [6] [µg/mL] | IC50 [1] [µg/mL] | IC50 [2] [µg/mL] | IC50 [3] [µg/mL] | IC50 [4] [µg/mL] | IC50 [5] [µg/mL] | IC50 [6] [µg/mL]
C=C(CBr)[C@@H]1CC[C@]2(COC(C)=O)CC[C@]3(C)[C@H](CC[C@@H]4[C@@]5(C)CC[C@H](OC(C)=O)C(C)(C)[C@@H]5CC[C@]43C)[C@@H]12 [Compound 12, 3,28-Di-O-acetyl-30-bromo-betulin] | >10 | >10 | >10 | >10 | >10 | >10 | – | – | – | – | – | –
C=C(CN=[N+]=[N-])[C@@H]1CC[C@]2(COC(C)=O)CC[C@]3(C)C(CCC4[C@@]5(C)CC[C@H](OC(C)=O)C(C)(C)[C@@H]5CC[C@]43C)[C@@H]12 (stereo partly drawn) [Compound 13, 3,28-Di-O-acetyl-30-azido-betulin] | – | – | – | – | – | – | > 10 | > 10 | > 10 | > 10 | > 10 | > 10
C=C(C)[C@@H]1CC[C@]2(CNC(=O)[C@H](C)[C@@H](OC)C3CCCN3C(=O)OC(C)(C)C)CC[C@]3(C)C(CCC4[C@@]5(C)CC[C@H](OC(C)=O)C(C)(C)C5CC[C@]43C)C12 (stereo partly drawn) [Compound 5, 3-O-Acetyl-28-amino-N-(Boc-dap)-betulin] | – | – | – | – | – | – | > 10 | > 10 | > 10 | > 10 | > 10 | > 10
C=C(CNC(=O)[C@H](C)[C@@H](OC)[C@@H]1CCCN1C(=O)OC(C)(C)C)[C@@H]1CC[C@]2(COC(C)=O)CC[C@]3(C)[C@H](CC[C@@H]4[C@@]5(C)CC[C@H](OC(C)=O)C(C)(C)[C@@H]5CC[C@]43C)[C@@H]12 [Compound 15b, 30-N-(Boc-dap)-3, 28-di-O-acetoxy-betulin] | >10 | 7.0 | 5.9 | >10 | >10 | >10 | – | – | – | – | – | –
C=C(C)[C@@H]1CC[C@]2(CN)CC[C@]3(C)C(CCC4[C@@]5(C)CC[C@H](OC(C)=O)C(C)(C)C5CC[C@]43C)C12 (stereo partly drawn) [Compound 3, 3-O-Acetyl-28-aminobetulin] | – | – | – | – | – | – | 1.9 (≈ 3.93 µM) | 1.9 (≈ 3.93 µM) | 1.8 (≈ 3.72 µM) | 1.9 (≈ 3.93 µM) | 1.8 (≈ 3.72 µM) | 1.8 (≈ 3.72 µM)
3-O-Acetyl-28-amido-allobetulin-28-N-1′-ethyldiamine-N-2′-Dap-Dil-Val-Dov [Compound 18a] | 3.8 | 3.1 | 1.3 | 5.1 | 0.39 | 3.6 | – | – | – | – | – | –
C=C(CNC(=O)[C@H](C)[C@@H](OC)[C@@H]1CCCN1C(=O)C[C@@H](OC)[C@H]([C@@H](C)CC)N(C)C(=O)[C@@H](NC(=O)[C@H](C(C)C)N(C)C)C(C)C)[C@@H]1CC[C@]2(COC(C)=O)CC[C@]3(C)[C@H](CC[C@@H]4[C@@]5(C)CC[C@H](OC(C)=O)C(C)(C)[C@@H]5CC[C@]43C)[C@@H]12 [Compound 16a, 30-N-(Dap-Dil-Val-Dov)-3,28-di-O-acetoxy-betulin] | 8.0 | 4.0 | 4.0 | >10 | 3.0 | 6.3 | – | – | – | – | – | –
C=C(C)[C@@H]1CC[C@]2(CNC(=O)[C@H](C)[C@@H](OC)[C@@H]3CCCN3C(=O)C[C@@H](OC)[C@H]([C@@H](C)CC)N(C)C(=O)[C@@H](NC(=O)[C@H](C(C)C)N(C)C)C(C)C)CC[C@]3(C)[C@H](CC[C@@H]4[C@@]5(C)CC[C@H](OC(C)=O)C(C)(C)[C@@H]5CC[C@]43C)[C@@H]12 [Compound 7a, 3-O-Acetyl-28-amino-N-(Dap-Dil-Val-Dov)-betulin] | 4.1 | 2.4 | 2.6 | 4.2 | 3.7 | 3.6 | – | – | – | – | – | –
C=C(C)[C@@H]1CC[C@]2(COC(C)=O)CC[C@]3(C)C(CCC4[C@@]5(C)CC[C@H](NC(=O)[C@H](C)[C@@H](OC)C6CCCN6C(=O)OC(C)(C)C)C(C)(C)[C@@H]5CC[C@]43C)[C@@H]12 (stereo partly drawn) [Compound 10, 3-β-Amino-N-(Boc-Dap)-28-O-acetyl-betulin] | – | – | – | – | – | – | > 10 | > 10 | > 10 | > 10 | > 10 | > 10
C=C(C)[C@@H]1CC[C@]2(COC(C)=O)CC[C@]3(C)[C@H](CC[C@@H]4[C@@]5(C)CCC(N)C(C)(C)[C@@H]5CC[C@]43C)[C@@H]12 (single isomer, unassigned) [Compound 9a, 3-α/β-Amino-28-O-acetyl-betulin] | >10 | 3.0 | 1.2 | 6.0 | 1.3 | 2.1 | – | – | – | – | – | –
C=C(C)[C@@H]1CC[C@]2(COC(C)=O)CC[C@]3(C)C(CCC4[C@@]5(C)CC/C(=N/O)C(C)(C)[C@@H]5CC[C@]43C)[C@@H]12 (stereo partly drawn) [Compound 8, 3-Oxime-28-O-acetyl-betulin] | – | – | – | – | – | – | 10.4 (≈ 20.9 µM) | 14.1 (≈ 28.3 µM) | > 10 | > 10 | > 10 | 5.9 (≈ 11.9 µM)
C=C(CN)[C@@H]1CC[C@]2(CO)CC[C@]3(C)[C@H](CC[C@@H]4[C@@]5(C)CC[C@H](O)C(C)(C)[C@@H]5CC[C@]43C)[C@@H]12 [Compound 14, 30-Amino-betulin] | 3.0 | 2.9 | 4.2 | 4.0 | 2.1 | 3.1 | – | – | – | – | – | –
C=C(CNC(=O)[C@H](C)[C@@H](OC)[C@@H]1CCCN1C(=O)OC(C)(C)C)[C@@H]1CC[C@]2(CO)CC[C@]3(C)[C@H](CC[C@@H]4[C@@]5(C)CC[C@H](O)C(C)(C)[C@@H]5CC[C@]43C)[C@@H]12 [Compound 15a, 30-N-(Boc-dap)-betulin] | >10 | >10 | >10 | >10 | >10 | 9.0 | – | – | – | – | – | –
C=C(C)[C@@H]1CC[C@]2(C=O)CC[C@]3(C)[C@H](CC[C@@H]4[C@@]5(C)CC[C@H](OC(C)=O)C(C)(C)[C@@H]5CC[C@]43C)[C@@H]12 [Compound 1, 3-O-Acetyl-28-betulinal] | >10 | >10 | >10 | >10 | >10 | >10 | – | – | – | – | – | –
C=C(C)[C@@H]1CC[C@]2(CO)CC[C@]3(C)[C@H](CC[C@@H]4[C@@]5(C)CC[C@H](O)C(C)(C)[C@@H]5CC[C@]43C)[C@@H]12 [Betulin, betulin, reference compound] | – | – | – | – | – | – | 9.3 (≈ 21 µM) | > 10 | > 10 | 7.4 (≈ 16.7 µM) | > 10 | > 10
C=C(C)[C@@H]1CC[C@]2(/C=N/O)CC[C@]3(C)[C@H](CC[C@@H]4[C@@]5(C)CC[C@H](OC(C)=O)C(C)(C)[C@@H]5CC[C@]43C)[C@@H]12 [Compound 2, 3-O-Acetyl-28-oxime-betulin] | 15.5 | 5.1 | 13.2 | 4.1 | >10 | 4.5 | – | – | – | – | – | –
C=C(C)[C@@H]1CC[C@]2(COC(C)=O)CC[C@]3(C)[C@H](CC[C@@H]4[C@@]5(C)CC[C@H](NC(=O)[C@H](C)[C@@H](OC)[C@@H]6CCCN6C(=O)C[C@@H](OC)[C@H]([C@@H](C)CC)N(C)C(=O)[C@@H](NC(=O)[C@H](C(C)C)N(C)C)C(C)C)C(C)(C)[C@@H]5CC[C@]43C)[C@@H]12 [Compound 11a, 3β-Amino-N-(Dap-Dil-Val-Dov)-28-O-acetyl-betulin] | 10.0 | 7.0 | 3.8 | >10 | 2.5 | 4.1 | – | – | – | – | – | –
